Test results published in US20250221410A1, “SUBSTITUTED 2-C-AZINES AND SALTS THEREOF, AND USE THEREOF AS HERBICIDAL ACTIVE SUBSTANCES” (BAYER AKTIENGESELLSCHAFT, priority 2022, published 2025).

What was measured:
Type in all cases: in vivo
[1] = test system: ABUTH: Abutilon theophrasti; experiment: Post-emergence herbicidal efficacy at 1280 g/ha, ABUTH; settings: rated visually after about 3 weeks vs untreated controls, 100% = plants have died, 0% = like control plants
Procedure, shortened: (§1)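 Greenhouse post-emergence spray: one-leaf stage, 2–3 wk after sowing; WP/EC as aqueous suspension/emulsion + 0.5% additive, 600 L/ha water. Visual % activity vs untreated at ~3 wk; 100% = dead, 0% = as control.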

[2] = test system: AMARE: Amaranthus retroflexus; experiment: Post-emergence herbicidal efficacy at 1280 g/ha, AMARE; settings: rated visually after about 3 weeks vs untreated controls, 100% = plants have died, 0% = like control plants
Procedure, shortened: as §1

[3] = test system: DIGSA: Digitaria sanguinalis; experiment: Post-emergence herbicidal efficacy at 1280 g/ha, DIGSA; settings: rated visually after about 3 weeks vs untreated controls, 100% = plants have died, 0% = like control plants
Procedure: (§2) Seeds of mono- and dicotyledonous weed plants were placed in plastic pots in sandy loam soil (doubly sown with in each case one species of mono- or dicotyledonous weed plants per pot), covered with soil and cultivated in a greenhouse under controlled growth conditions. 2 to 3 weeks after sowing, the test plants were treated at the one-leaf stage. The compounds of the invention, formulated in the form of wettable powders (WP) or as emulsion concentrates (EC), were applied to the green parts of the plants as aqueous suspension or emulsion with addition of 0.5% additive at a water application rate equivalent to 600 litres per hectare. After the test plants had been kept in the greenhouse under optimum growth conditions for about 3 weeks, the activity of the preparations was rated visually in comparison to untreated controls. For example, 100% activity=the plants have died, 0% activity=like control plants. Tables A1 to A12 below show the effects of selected compounds of the general formula (I) according to Table 1 on various harmful plants and at an application rate corresponding to 1280 g/ha, which were obtained by the trial procedure specified above.

[4] = test system: ECHCG: Echinochloa crus-galli; experiment: Post-emergence herbicidal efficacy at 1280 g/ha, ECHCG; settings: rated visually after about 3 weeks vs untreated controls, 100% = plants have died, 0% = like control plants
Procedure: as §2

[5] = test system: KCHSC: Kochia scoparia; experiment: Post-emergence herbicidal efficacy at 1280 g/ha, KCHSC; settings: visual rating about 3 weeks after treatment vs untreated controls
Procedure, shortened: as §1

[6] = test system: POAAN: Poa annua; experiment: Post-emergence herbicidal efficacy at 1280 g/ha, POAAN; settings: visual rating about 3 weeks after treatment vs untreated controls
Procedure, shortened: as §1

[7] = test system: SETVI: Setaria viridis; experiment: Post-emergence herbicidal efficacy at 1280 g/ha, SETVI; settings: visual rating about 3 weeks after treatment vs untreated controls
Procedure: as §2

[8] = test system: STEME: Stellaria media; experiment: Post-emergence herbicidal efficacy at 1280 g/ha, STEME; settings: visual rating about 3 weeks after treatment vs untreated controls
Procedure, shortened: as §1

[9] = test system: VERPE: Veronica persica; experiment: Post-emergence herbicidal efficacy at 1280 g/ha, VERPE; settings: visual rating about 3 weeks after treatment vs untreated controls
Procedure, shortened: as §1

[10] = test system: ABUTH: Abutilon theophrasti; experiment: Pre-emergence herbicide efficacy at 1280 g/ha, ABUTH; settings: visual scoring after about 3 weeks vs untreated controls
Procedure, shortened: (§3)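 Weed seeds were sown and covered with soil in pots, then treated on the soil surface with formulated compound (WP or EC, 0.5% additive, 600 L/ha water). Visual % damage relative to untreated pots was rated about 3 weeks later under greenhouse conditions, 0% meaning no effect and 100% plant death.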

[11] = test system: AMARE: Amaranthus retroflexus; experiment: Pre-emergence herbicide efficacy at 1280 g/ha, AMARE; settings: visual scoring after about 3 weeks vs untreated controls
Procedure, shortened: as §3

[12] = test system: DIGSA: Digitaria sanguinalis; experiment: Pre-emergence herbicide efficacy at 1280 g/ha, DIGSA; settings: visual scoring after about 3 weeks vs untreated controls
Procedure, shortened: as §3

[13] = test system: ECHCG: Echinochloa crus-galli; experiment: Pre-emergence herbicide efficacy at 1280 g/ha, ECHCG; settings: visual scoring after about 3 weeks vs untreated controls
Procedure, shortened: as §3

[14] = test system: KCHSC: Kochia scoparia; experiment: Pre-emergence herbicide efficacy at 1280 g/ha, KCHSC; settings: visual scoring after about 3 weeks vs untreated controls
Text: (§4) Seeds of mono- and dicotyledonous weed plants were placed in plastic pots in sandy loam soil (doubly sown with one species each of mono- or dicotyledonous weed plants per pot) and covered with soil. The compounds of the invention, formulated in the form of wettable powders (WP) or as emulsion concentrates (EC), were then applied to the surface of the covering soil as aqueous suspension or emulsion with addition of 0.5% additive at a water application rate of 600 litres per hectare (converted). After the treatment, the pots were placed in a greenhouse and kept under good growth conditions for the test plants. After about 3 weeks, the efficacy of the preparations was scored visually in comparison with untreated controls as percentages. For example, 100% activity=the plants have died, 0% activity=like control plants. Tables C1 to C12 below show the effects of selected compounds of the general formula (I) according to Table 1 on various harmful plants and at an application rate corresponding to 1280 g/ha, which were obtained by the trial procedure specified above.

[15] = test system: POAAN: Poa annua; experiment: Pre-emergence herbicide efficacy at 1280 g/ha, POAAN; settings: visual scoring after about 3 weeks vs untreated controls
Procedure, shortened: as §3

[16] = test system: SETVI: Setaria viridis; experiment: Pre-emergence herbicide efficacy at 1280 g/ha, SETVI; settings: visual scoring vs untreated controls
Procedure, shortened: as §3

[17] = test system: STEME: Stellaria media; experiment: Pre-emergence herbicide efficacy at 1280 g/ha, STEME; settings: visual scoring vs untreated controls
Procedure, shortened: as §3

[18] = test system: VERPE: Veronica persica; experiment: Pre-emergence herbicide efficacy at 1280 g/ha, VERPE; settings: visual scoring vs untreated controls
Procedure, shortened: as §3

[19] = test system: MATIN: Matricaria inodora; experiment: Pre-emergence herbicide efficacy at 1280 g/ha, MATIN; settings: visual scoring after about 3 weeks vs untreated controls
Text: as §4

Row | SMILES | Post-emergence efficacy at 1280 g/ha against ABUTH in % [1] | Post-emergence efficacy at 1280 g/ha against AMARE in % [2] | Post-emergence efficacy at 1280 g/ha against DIGSA in % [3] | Post-emergence efficacy at 1280 g/ha against ECHCG in % [4] | Post-emergence efficacy against KCHSC [5] | Post-emergence efficacy against POAAN [6] | Post-emergence efficacy against SETVI [7] | Post-emergence efficacy against STEME [8] | Post-emergence efficacy against VERPE [9] | Pre-emergence efficacy against ABUTH [10] | Pre-emergence efficacy against AMARE [11] | Pre-emergence efficacy against DIGSA [12] | Pre-emergence efficacy against ECHCG [13] | Pre-emergence efficacy against KCHSC [14] | Pre-emergence efficacy against POAAN [15] | Pre-emergence efficacy against SETVI in % [16] | Pre-emergence efficacy against STEME in % [17] | Pre-emergence efficacy against VERPE in % [18] | Pre-emergence efficacy against MATIN [19]
1 | Fc1ccc(Cc2ccccc2Cc2ncc(Cl)cn2)cc1 [Example 1-23] | 100% | 100% | 100% | 100% | 90% | 100% | 90% | 90% | 100% | 100% | 100% | 100% | 100% | 90% | 90% | 100% | 100% | 100% | –
2 | FC(F)(F)c1cnn(-c2ccccc2Cc2ncc(Cl)cn2)c1 [Example 1-42] | 90% | 100% | – | 90% | – | 90% | – | 90% | 90% | 100% | 100% | 100% | 90% | 100% | 90% | 100% | 100% | 90% | 90%
3 | Clc1cnc(Oc2ccccc2Cc2ncccn2)nc1 [Example 1-76] | – | 90% | – | – | – | – | – | – | 90% | 90% | 100% | – | – | – | – | – | 90% | 90% | 90%
4 | Fc1cnc(Cc2ccccc2Oc2ncc(F)cn2)nc1 [Example 1-89] | 90% | 100% | – | – | 100% | – | – | – | 100% | 100% | 100% | 100% | – | 100% | 100% | 90% | 90% | 100% | 100%
5 | Clc1ccc(Cc2ccccc2Oc2ncc(Cl)cn2)nc1 [Example 1-91] | 100% | 100% | 90% | – | 100% | 100% | 90% | 100% | 100% | 100% | 100% | 100% | 90% | 100% | 100% | 100% | 100% | 100% | 100%
6 | Fc1ccc(Cc2ccccc2Oc2ncc(F)cn2)nc1 [Example 1-93] | 90% | 100% | – | – | 100% | 100% | – | – | 100% | 100% | 100% | 100% | 100% | 100% | 100% | 100% | 100% | 100% | 100%
7 | Fc1cnc(Oc2ccccc2Cc2ccc(Cl)cn2)nc1 [Example 1-100] | 90% | 100% | – | – | 100% | 100% | 90% | 90% | 100% | 100% | 100% | 100% | 100% | 100% | 100% | 100% | 100% | 100% | 100%
8 | FC(F)(F)CCSc1ccccc1Cc1ncc(Cl)cn1 [Example 1-112] | 100% | 100% | 90% | 90% | 100% | 100% | 90% | 100% | 100% | 90% | 100% | 100% | 100% | 100% | 90% | 90% | 90% | 100% | –
9 | Fc1cnc(Cc2ccccc2-n2cc(C(F)(F)F)cn2)nc1 [Example 1-129] | 100% | 100% | – | – | 100% | 100% | – | 100% | 90% | 100% | 100% | 90% | 100% | 90% | 90% | 90% | 100% | 90% | 100%
